Target: Serine/threonine-protein kinase 33 (Homo sapiens, UniProt Q9BYT3)
Experiment: STK33 kinase inhibitors, dose response, biochemical, luminescence, cell-free, retest (AID 2821)

Serine/threonine-protein kinase 33, sequence (Q9BYT3 whole entry): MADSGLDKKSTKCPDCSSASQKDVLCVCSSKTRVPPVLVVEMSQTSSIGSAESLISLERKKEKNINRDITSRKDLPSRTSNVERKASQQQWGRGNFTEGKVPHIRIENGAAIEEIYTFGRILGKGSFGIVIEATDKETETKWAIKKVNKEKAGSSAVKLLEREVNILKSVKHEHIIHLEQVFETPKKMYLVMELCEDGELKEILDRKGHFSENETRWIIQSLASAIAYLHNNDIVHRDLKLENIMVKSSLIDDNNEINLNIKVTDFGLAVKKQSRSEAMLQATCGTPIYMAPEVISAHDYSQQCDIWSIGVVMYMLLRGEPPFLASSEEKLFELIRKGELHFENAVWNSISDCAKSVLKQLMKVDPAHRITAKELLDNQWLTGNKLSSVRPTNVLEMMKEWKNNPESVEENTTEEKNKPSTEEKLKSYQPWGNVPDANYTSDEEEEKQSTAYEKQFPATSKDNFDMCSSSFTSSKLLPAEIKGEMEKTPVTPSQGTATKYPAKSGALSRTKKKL

Row | Structure (SMILES) | EC50 [µM]
1 | O=C1NC(=O)/C(=C/c2ccc(O)cc2)S1 [SMR000324608] | 12.4
2 | COC(=O)c1ccc(COc2ccccc2/C=C/C(=O)c2ccc(OCC(=O)O)cc2)cc1 [SMR000590970] | 1.86
3 | CCC(C(=O)Nc1ccc2[nH]ncc2c1)c1ccccc1 (stereo not given) [MLS001001015] | 9.54
4 | Cc1cccc(N2CCN(CCCNC(=O)c3ccc(NC(=O)C4=CSCCO4)cc3)CC2C)c1 (stereo not given) | 7.97
5 | Nc1ccc(N)c2c(O)c3ccccc3c(O)c12 [1,4-bis(azanyl)-2,3-dihydroanthracene-9,10-dione] | 23.8
6 | CCN(CC)c1ccc(Nc2nc(N3CCOCC3)c3ccccc3n2)cc1 [4-N,4-N-diethyl-1-N-(4-morpholin-4-ylquinazolin-2-yl)benzene-1,4-diamine] | > 120
7 | CCCCCCCCCCCCCCCC[N+](C)(C)CCN(Cc1ccc(OC)cc1)c1ncccn1 [SMR001233380] | 35.8
8 | CCC(Sc1ccc2nnc(-c3ccc(OC)c(OC)c3)n2n1)C(=O)O (stereo not given) | 13.2
9 | Cn1c(/N=N/c2ccccc2)nc2ccccc21 [(1-methyl-2-benzimidazolyl)-phenyldiazene] | > 120
10 | c1cncc(Nc2nc(-c3cccnc3)cs2)c1 [SMR000077836] | 26.6
11 | CNC(=O)c1cnc2ccc(S(=O)(=O)Nc3ccccc3F)cc2c1O | > 120
12 | CN(C)C/C=C/C(=O)Nc1cccc(-c2c[nH]c3ncnc(Oc4ccc(NC(=O)CC(=O)Nc5ccc(F)cc5)cc4F)c23)c1 | 6.32
13 | CN1CCCC1CCNc1ccc2sc3ccccc3c(=O)c2c1 (stereo not given) [2-[2-(1-methyl-2-pyrrolidinyl)ethylamino]-9-thioxanthenone] | 16.6
14 | CCOc1cc(C=C(C#N)c2n[nH]c(N)c2C#N)ccc1O [MLS000523215] | 8.62
15 | Cc1ccc(-c2nn(CCC(=O)O)cc2/C=C\C(=O)c2ccc(Br)cc2)cc1 [3-[4-[(Z)-3-(4-bromophenyl)-3-oxoprop-1-enyl]-3-(4-methylphenyl)pyrazol-1-yl]propanoic acid] | 19.3
16 | CCCn1c2ccc(C(C)N=O)cc2c2cc(C(C)N=O)ccc21 (stereo not given) [1-[6-(1-hydroxyiminoethyl)-9-propyl-3-carbazolyl]ethanone oxime] | 2.48
17 | COc1cc(C=NNC2=c3ccccc3=NC2=O)ccc1O | 9.23
18 | S=C(Nc1cccc(Cl)c1)Nc1ccc2cn[nH]c2c1 [SMR000261299] | > 120
19 | Cc1cc(N2C(=O)c3ccc(C(=O)Nc4ccc(O)cc4C(=O)O)cc3C2=O)no1 [5-hydroxy-2-[[[2-(5-methyl-3-isoxazolyl)-1,3-dioxo-5-isoindolyl]-oxomethyl]amino]benzoic acid] | 24
20 | CC(=O)N(C)c1ccc(N=Cc2c(O)ccc3ccccc23)cc1 [MLS001212262] | 3.76
21 | NC(=O)c1sc2nc(-c3ccco3)ccc2c1N [3-Amino-6-furan-2-yl-thieno[2,3-b]pyridine-2-carboxylic acid amide] | 25.5
22 | COc1ccc(C(=O)ON=C(N)c2ccccn2)cc1 [SMR000608101] | 40.4
23 | CCCCCCCCCCCCCCCC[n+]1cccc2ccccc21 [1-cetylquinolin-1-ium;iodide] | > 120
24 | Oc1ccc(Nc2nc(-c3ccccc3O)nc3ccccc23)cc1 | 2.43
25 | O=C(O)c1ccc(N=Cc2c(O)ccc3oc4c(c23)CCCC4)cc1 [4-{[1-(2-Hydroxy-6,7,8,9-tetrahydro-dibenzofuran-1-yl)-meth-(E)-ylidene]-amino}-benzoic acid] | 6.2

Row | Structure (SMILES) | EC50 [µM]
26 | c1ccc(Nc2ccnc(Nc3ccccc3)n2)cc1 [N*2*,N*4*-Diphenyl-pyrimidine-2,4-diamine] | 14.9
27 | CN(C)/C=C/C(=O)c1ccc2noc(-c3ccccc3)c2c1 [SMR000549693] | 15.9
28 | O=C(Nc1cccc(-c2cn3cccnc3n2)c1)c1ccc(Br)o1 [5-bromanyl-N-(3-imidazo[1,2-a]pyrimidin-2-ylphenyl)furan-2-carboxamide] | 16
29 | COC(=O)c1cccc2c1-c1ccccc1C2N=O (stereo not given) [(9Z)-9-hydroximinofluorene-4-carboxylic acid methyl ester] | 11.8
30 | CCN(CC)c1ccc(/C=C2/C(=O)c3ccc(C(=O)O)cc3C2=O)cc1 [(2Z)-2-[[4-(diethylamino)phenyl]methylidene]-1,3-dioxoindene-5-carboxylic acid] | 3.83
31 | CCSc1nc(N2CCOCC2)c2c(c1C#N)CCCC2 [3-(ethylthio)-1-(4-morpholinyl)-5,6,7,8-tetrahydroisoquinoline-4-carbonitrile] | 8.86
32 | COc1ccc(O)c(-c2nc(N)nc(N)n2)c1 [(6Z)-6-[4,6-bis(azanyl)-1H-1,3,5-triazin-2-ylidene]-4-methoxy-cyclohexa-2,4-dien-1-one] | 8.14
33 | N#Cc1c2ccc(O)cc2n2ccccc12 [3-hydroxypyrido[1,2-a]indole-10-carbonitrile] | 4.59
34 | COC1(OC)N=C(N)C2(C#N)C(c3ccc4c(c3)OCO4)C12C#N (stereo not given) | > 120
35 | CCn1c(/C=C/c2ccc([N+](=O)[O-])o2)nc2ccccc2c1=O [3-ethyl-2-[(E)-2-(5-nitro-2-furanyl)ethenyl]-4-quinazolinone] | > 120
36 | CCNC(=S)Nc1ccc2cn[nH]c2c1 [SMR000261305] | 49.7
37 | CCN1C=CC(=C2C(=O)c3ccccc3C2=O)C=C1 [2-(1-ethyl-4-pyridinylidene)indene-1,3-dione] | 14
38 | N#CC(C(=O)c1ccco1)c1nc2ccccc2[nH]1 (stereo not given) [SMR000305206] | 8.49
39 | Oc1cc(O)cc(/C=C/c2ccc(O)cc2O)c1 [(oxyresveratrol)4-[(E)-2-(3,5-dihydroxyphenyl)vinyl]benzene-1,3-diol] | 9.66
40 | Oc1ccc(CN=Nc2ccnc3cc(Cl)ccc23)cc1O [(4Z)-4-[[2-(7-chloroquinolin-4-yl)hydrazinyl]methylidene]-2-hydroxycyclohexa-2,5-dien-1-one] | 3.05
41 | CCN1C(=O)CC(c2ccccc2)N(C2CCCC2)c2nc(Nc3ccc(C(=O)NC4CCN(C)CC4)cc3OC)ncc21 (stereo not given) | 7.93
42 | CC(Oc1ccc2c(c1)c1ccnc3c4ccccc4c(=O)n2c13)C(=O)NCCN1CCOCC1 (stereo not given) [SMR000652046] | 0.416
43 | O=c1c2ccccc2sc2ccc(NCCCN3CCOCC3)cc12 | 16.8
44 | c1nc(N2CCCC2)c2[nH]cnc2n1 [6-(1-pyrrolidinyl)-7H-purine] | 9.71
45 | COc1cc(C=C2SC(Nc3ccccc3OC)=NC2=O)ccc1O [5-(4-Hydroxy-3-methoxy-benzylidene)-2-(2-methoxy-phenylimino)-thiazolidin-4-one] | 4
46 | C=CC(=O)Nc1ccc(CN2C(=O)N(c3c(Cl)c(OC)cc(OC)c3Cl)Cc3cnc(NCCCCN(CC)CC)nc32)cc1 [N-[4-[[3-[2,6-bis(chloranyl)-3,5-dimethoxy-phenyl]-7-[4-(diethylamino)butylamino]-2-oxidanylidene-4H-pyrimido[4,5-d]pyrimidin-1-yl]methyl]phenyl]prop-2-enamide] | 0.618
47 | O=C1c2c(O)ccc(O)c2C(=O)c2c(NCCNCCO)ccc(NCCNCCO)c21 [SMR000058480] | 5.88
48 | CCCCCCCCCCOC(=O)Cn1c(COc2ccc(Cl)cc2)[n+](C)c2ccccc21 [decyl 2-[2-[(4-chloranylphenoxy)methyl]-3-methyl-benzimidazol-3-ium-1-yl]ethanoate;chloride] | > 120
49 | CN(C)c1cc2c(c(N(C)C)c1)C(=O)c1ccccc1C2=O [1,3-bis(dimethylamino)-9,10-anthraquinone] | 23.8
50 | CN(C)S(=O)(=O)c1cccc(NC(=S)Nc2ccc3cn[nH]c3c2)c1 [MLS001033726] | 38.7

Reference: BindingDB's records for doi:10.7270/Q2B27SRF (Broad Institute, 2010)
